Measured values reported in patent publication US20020032214A1, “Pharmaceutical composition comprising a compound having anti-xa activity and a platelet aggregation antagonist compound” (priority 1996, published 2002).

Assay: Template bleeding time in the canine model of unstable angina
Type: in vivo, Mongrel dogs
Details: high-dose of the platelet aggregation antagonist compound, i.v., dogs
Procedure: Mongrel dogs of either sex (15-21 kg) are anesthetized with sodium pentobarbital (30 mg/kg, i.v., with supplements given as needed), intubated, and ventilated using a Harvard respirator (Harvard Apparatus. S. Natick, Mass.). A tri-lumen catheter (SAFEDWELLplus, Becton Dickinson, Sandy, Utah) is placed in the right femoral vein for the administration of test agents and supplemental anesthesia. The right femoral artery is cannulated for measurement of arterial blood pressure and for obtaining blood samples.
Thirty dogs are assigned to one of six adjunctive treatment groups. […]
After consistent CFRs are established for at least 20 minutes, compounds are administered as described above and blood flow is monitored during the one hour infusion period. […] Mean arterial blood pressure, heart rate and EKG are recorded for the duration of the protocol (Grass polygraph, Model 7D, Grass Instruments, Mass.).
Template bleeding time measurements are obtained at the same time points as the blood samples, as mentioned previously. Template bleeding time is measured after a uniform incision is made on the mucous membrane of the inner upper lip with a Surgicutt® automated incision device (ITC, Edison, N.J.). […] Template bleeding time is measured from the moment of the incision until the blood no longer stained the blotting paper. […]

CCCCS(=O)(=O)N[C@@H](Cc1ccc(OCCCCC2CCNCC2)cc1)C(=O)O [BSPBPA, N-(n-butylsulfonyl)-4-(piperidin-4-ylbutyloxy)-L-phenylalanine]
increase in template bleeding time: > 5 fold
